Results published in patent US10828315B2 (Madrigal Pharmaceuticals, Inc., priority 2013, dated 2020).
≈ marks a conversion by molar mass, not a printed value. Entries after “also recorded” stand apart in the source; their conditions may differ.

Key:
[1] = Solubility of SDC-TRAP-0063 (ganetespib placebo formulation, PEG-300); assay type: physicochemical; details: for solubility at 1 h / solubility at 1 day / solubility at 3 days / solubility at 7 days: ganetespib placebo formulation, organic solvent or mixture, thermodynamic from solid
Experimental: Concentration of dissolved drug was determined by HPLC assay method at 1 hr, 1 day, 3 days and 7 days.

SK-OV-3 xenografts = test: Antitumor activity in SK-OV-3 ovarian cancer xenografts; assay type: in vivo, female Balb/c nude mice; details: SDC-TRAP-0063 200 mg/kg group; irinotecan alone and with ganetespib; 200 mg/kg
Experimental: This model is sensitive to HSP90 inhibition.
However, once the dosing is discontinued all but 200 mg/kg of SDC-TRAP-0063 dose group maintained tumor growth inhibition for a prolonged period of time.

[2] = Solubility of SDC-TRAP-0063 (ganetespib placebo formulation, PEG-300); assay type: physicochemical; details: PEG-300, organic solvent or mixture, thermodynamic from solid; Lot 8; estimated; read-out: equilibrium solubility in PEG-300
[3] = tested on: human urinary bladder cancer cell line SW780; test: Cytotoxicity assay (CellTiter-Glo, 72 h), SW780; assay type: cell-based; details: SW780, 72 hours, read-out: Cytotoxicity (IC50, nM) SW-780
Experimental: Cytotoxicity of SDC-TRAP molecules was determined in three cancer cell lines. […] 80 μL of CellTiter-Glo was added to each well, followed by room temperature incubation in the dark for 15 minutes. Cell was determined by luminescence. IC50 was calculated using XLfit™ software.

[4] = tested on: H2AX phosphorylation, HSP70, EGFR, MET; test: Pharmacodynamics in CRC (HCT-116) xenograft tumors; assay type: in vivo, mouse
MCF-7 xenografts = details: mouse, in vivo
Experimental: MCF-7 breast cancer cells were purchased from ATCC. The cells were maintained in vitro as a monolayer culture in McCoy's 5a Medium. Fetal bovine serum was then added to the medium. The final concentration of fetal bovine serum was 10%. Cells were cultured at 37° C. and 5% CO2. The tumor cells were routinely sub-cultured twice weekly by trypsin-EDTA treatment. Cells in an exponential growth phase were harvested and counted for tumor inoculation.
75 24-30 g, 10-13 week old, female CD-1 nude mice were inoculated with the MCF-7 cells (5.0×10^6/mouse) orthotopically in mammary fat pad (0.1 mL/mouse). 60 days estrogen pellets was implanted the day prior to cell implantations. When the average tumor volume reached about 100-225 mm^3, 40 of the inoculated mice were selected based on tumor growth and randomly grouped into 5 treatment groups (8 mice per group) according to the following table. Mice that were not put on treatment were euthanized.
During the treatment period, the implanted tumors were measured by caliper twice per week. […] Animal body weights were also weighed and recorded 5× per week.

[5] = Metabolite profiling and identification; assay type: in vitro ADME; parameters: key: —: Not detected; details: for Metabolite Hydrolysis (SN-38): M+1 393.3; for Metabolite Hydrolysis (SN-38) + H2O (carboxylate form): M+1 411.3; for Metabolite Hydrolysis (SDC-TRAP-0062): M+1 462.3; for Metabolite Hydrolysis (SDC-TRAP-0062) + N-dealkylation + glucuronide: M+1 527.3; for Metabolite Hydrolysis (SN-38) + glucuronidation: M+1 569.3; for Metabolite Hydrolysis (SN-38) + hydroxylation + glucuronidation: M+1 585.3; for Metabolite Hydrolysis (SDC-TRAP-0062) + glucuronidation: M+1 638.3; for Metabolite Hydrolysis (SDC-TRAP-0062) + oxidation + glucuronide: M+1 652.3; for Metabolite Hydrolysis (SDC-TRAP-0062) + di-oxidation + glucuronide: M+1 668.3; for Metabolite Hydrolysis (SDC-TRAP-0062) + H2O (ring opened) + glucuronide: M+1 670.3; for Metabolite Hydroxylation: M+1 896.3; for Metabolite Carboxylate form: M+1 898.3; for Metabolite Di-hydroxylation: M+1 912.4; for Metabolite Glucuronidation: M+1 1056.4
Description: Metabolite Profiling and Identification: Metabolite profiling/identification for SDC-TRAP-0063 (M+1:880.3)

[6] = kinetic solubility in ganetespib placebo formulation, Lot6
[7] = kinetic solubility in ganetespib placebo formulation, Lot8

## CCc1c2c(nc3ccc(OC(=O)N4CCC(CCn5ccc6cc(-n7c(O)nnc7-c7cc(C(C)C)c(O)cc7O)ccc65)CC4)cc13)-c1cc3c(c(=O)n1C2)COC(=O)[C@]3(O)CC [SDC-TRAP-0063, 4,11-diethyl-4-hydroxy-3,14-dioxo-3,4,12,14-tetrahydro-1H-pyrano[3′,4′:6,7]indolizino[1,2-b]quinolin-9-yl 4-(2-(5-(3-(2,4-dihydroxy-5-isopropylphenyl)-5-hydroxy-4H-1,2,4-triazol-4-yl)-1H-indol-1-yl)ethyl)piperidine-1-carboxylate]
[1]; kinetic solubility in ganetespib placebo formulation (35% v/v tween 80, 40% v/v PEG-300, 25% v/v dehydrated alcohol), Lot6
  solubility at 1 h: 11.3 mg/mL (≈ 12.8 mM)
[1]; [6]
  solubility at 1 day: 10.2 mg/mL (≈ 11.6 mM)
  solubility at 3 days: 9.68 mg/mL (≈ 11 mM)
  solubility at 7 days: 7.32 mg/mL (≈ 8.32 mM)
[1]; [7]
  solubility at 1 h: 36.2 mg/mL (≈ 41.1 mM)
  solubility at 1 day: 35.3 mg/mL (≈ 40.1 mM)
  solubility at 3 days: 30 mg/mL (≈ 34.1 mM)
  solubility at 7 days: 19.7 mg/mL (≈ 22.4 mM)
[1]; lot 6 and lot 8, ganetespib placebo formulation (35% v/v tween 80, 40% v/v PEG-300, 25% v/v dehydrated alcohol), ambient
  solubility over time (1 hr, 1 day, 3 days, 7 days): appear to decrease over time, although no any degradation was observed
SK-OV-3 xenografts
  antitumor activity in SK-OV-3 xenografts (FIG. 25): maintains the tumor growth inhibition for several weeks; also recorded: statistically significant inhibitory impact on the growth of SK-OV-3 xenografts
[2]
  solubility thermodynamic: ~44 mg/mL (≈ 50 mM)
[3]
  IC50: 261 nM
[4]; HCT-116 tumors, 24 hr
  H2AX phosphorylation: stimulate H2AX phosphorylation at 24 hr
[4]; HCT-116 tumors, 24 hr exposure
  HSP70 and Hsp90 client protein (EGFR, MET) expression: induces HSP70 comparable to irinotecan but much less than ganetespib; also recorded: lack of effects on EGFR and MET stability
[4]; HCT-116 xenograft tumors
  Hsp90 inhibition (conclusion from PD): weak Hsp90 inhibitor
  kinetics of H2AX phosphorylation: beginning at 8 hr and leveling off at 24 hr
MCF-7 xenografts
  safety profile: good safety profile
[5]; Hepatocytes Dog
  Metabolite Hydrolysis (SN-38): √
  Metabolite Hydrolysis (SN-38) + H2O (carboxylate form): —
  Metabolite Hydrolysis (SDC-TRAP-0062): —
  Metabolite Hydrolysis (SDC-TRAP-0062) + N-dealkylation + glucuronide: —
  Metabolite Hydrolysis (SN-38) + glucuronidation: —
  Metabolite Hydrolysis (SN-38) + hydroxylation + glucuronidation: —
  Metabolite Hydrolysis (SDC-TRAP-0062) + glucuronidation: —
  Metabolite Hydrolysis (SDC-TRAP-0062) + oxidation + glucuronide: —
  Metabolite Hydrolysis (SDC-TRAP-0062) + di-oxidation + glucuronide: —
  Metabolite Hydrolysis (SDC-TRAP-0062) + H2O (ring opened) + glucuronide: —
  Metabolite Hydroxylation: √
  Metabolite Carboxylate form: √
  Metabolite Di-hydroxylation: √
  Metabolite Glucuronidation: √
[5]; Hepatocytes Human
  Metabolite Hydrolysis (SN-38): —
  Metabolite Hydrolysis (SN-38) + H2O (carboxylate form): —
  Metabolite Hydrolysis (SDC-TRAP-0062): —
  Metabolite Hydrolysis (SDC-TRAP-0062) + N-dealkylation + glucuronide: —
  Metabolite Hydrolysis (SN-38) + glucuronidation: √
  Metabolite Hydrolysis (SN-38) + hydroxylation + glucuronidation: —
  Metabolite Hydrolysis (SDC-TRAP-0062) + glucuronidation: —
  Metabolite Hydrolysis (SDC-TRAP-0062) + oxidation + glucuronide: —
  Metabolite Hydrolysis (SDC-TRAP-0062) + di-oxidation + glucuronide: —
  Metabolite Hydrolysis (SDC-TRAP-0062) + H2O (ring opened) + glucuronide: —
  Metabolite Hydroxylation: —
  Metabolite Carboxylate form: —
  Metabolite Di-hydroxylation: —
  Metabolite Glucuronidation: √
[5]; Hepatocytes Monkey
  Metabolite Hydrolysis (SN-38): √
  Metabolite Hydrolysis (SDC-TRAP-0062): —
  Metabolite Hydrolysis (SDC-TRAP-0062) + N-dealkylation + glucuronide: —
  Metabolite Hydrolysis (SN-38) + glucuronidation: √
  Metabolite Hydrolysis (SN-38) + hydroxylation + glucuronidation: √
  Metabolite Hydrolysis (SDC-TRAP-0062) + glucuronidation: —
  Metabolite Hydrolysis (SDC-TRAP-0062) + oxidation + glucuronide: —
  Metabolite Hydrolysis (SDC-TRAP-0062) + di-oxidation + glucuronide: —
  Metabolite Hydrolysis (SDC-TRAP-0062) + H2O (ring opened) + glucuronide: —
  Metabolite Hydroxylation: —
  Metabolite Carboxylate form: —
  Metabolite Di-hydroxylation: —
[5]; Hepatocytes Mouse
  Metabolite Hydrolysis (SN-38): —
  Metabolite Hydrolysis (SN-38) + H2O (carboxylate form): —
  Metabolite Hydrolysis (SDC-TRAP-0062): —
  Metabolite Hydrolysis (SDC-TRAP-0062) + N-dealkylation + glucuronide: —
  Metabolite Hydrolysis (SN-38) + glucuronidation: —
  Metabolite Hydrolysis (SN-38) + hydroxylation + glucuronidation: —
  Metabolite Hydrolysis (SDC-TRAP-0062) + glucuronidation: —
  Metabolite Hydrolysis (SDC-TRAP-0062) + oxidation + glucuronide: —
  Metabolite Hydrolysis (SDC-TRAP-0062) + di-oxidation + glucuronide: —
  Metabolite Hydrolysis (SDC-TRAP-0062) + H2O (ring opened) + glucuronide: —
  Metabolite Hydroxylation: —
  Metabolite Carboxylate form: —
  Metabolite Di-hydroxylation: —
  Metabolite Glucuronidation: √
[5]; Hepatocytes Rat
  Metabolite Hydrolysis (SN-38): —
  Metabolite Hydrolysis (SN-38) + H2O (carboxylate form): —
  Metabolite Hydrolysis (SDC-TRAP-0062): —
  Metabolite Hydrolysis (SDC-TRAP-0062) + N-dealkylation + glucuronide: —
  Metabolite Hydrolysis (SN-38) + glucuronidation: √
  Metabolite Hydrolysis (SN-38) + hydroxylation + glucuronidation: —
  Metabolite Hydrolysis (SDC-TRAP-0062) + glucuronidation: —
  Metabolite Hydrolysis (SDC-TRAP-0062) + oxidation + glucuronide: —
  Metabolite Hydrolysis (SDC-TRAP-0062) + di-oxidation + glucuronide: —
  Metabolite Hydrolysis (SDC-TRAP-0062) + H2O (ring opened) + glucuronide: —
  Metabolite Hydroxylation: —
  Metabolite Carboxylate form: —
  Metabolite Di-hydroxylation: —
[5]; Mouse in vivo Plasma 6 h
  Metabolite Hydrolysis (SN-38): √
  Metabolite Hydrolysis (SN-38) + H2O (carboxylate form): √
  Metabolite Hydrolysis (SDC-TRAP-0062): √
  Metabolite Hydrolysis (SDC-TRAP-0062) + N-dealkylation + glucuronide: √
  Metabolite Hydrolysis (SN-38) + glucuronidation: √
  Metabolite Hydrolysis (SN-38) + hydroxylation + glucuronidation: —
  Metabolite Hydrolysis (SDC-TRAP-0062) + glucuronidation: √
  Metabolite Hydrolysis (SDC-TRAP-0062) + oxidation + glucuronide: √
  Metabolite Hydrolysis (SDC-TRAP-0062) + di-oxidation + glucuronide: √
  Metabolite Hydrolysis (SDC-TRAP-0062) + H2O (ring opened) + glucuronide: √
  Metabolite Hydroxylation: —
  Metabolite Carboxylate form: √
  Metabolite Di-hydroxylation: —
  Metabolite Glucuronidation: √
[5]; Mouse in vivo Tumor 24 h
  Metabolite Hydrolysis (SN-38): √
  Metabolite Hydrolysis (SN-38) + H2O (carboxylate form): √
  Metabolite Hydrolysis (SDC-TRAP-0062): √
  Metabolite Hydrolysis (SDC-TRAP-0062) + N-dealkylation + glucuronide: —
  Metabolite Hydrolysis (SN-38) + glucuronidation: √
  Metabolite Hydrolysis (SN-38) + hydroxylation + glucuronidation: —
  Metabolite Hydrolysis (SDC-TRAP-0062) + glucuronidation: √
  Metabolite Hydrolysis (SDC-TRAP-0062) + oxidation + glucuronide: —
  Metabolite Hydrolysis (SDC-TRAP-0062) + di-oxidation + glucuronide: —
  Metabolite Hydrolysis (SDC-TRAP-0062) + H2O (ring opened) + glucuronide: —
  Metabolite Hydroxylation: —
  Metabolite Carboxylate form: √
  Metabolite Di-hydroxylation: —
  Metabolite Glucuronidation: √
